Each structure is given as a SMILES string. Activity calls are given as the source filed them. The rule behind the calls is not given here.

The series concerns CCRIS mutagenicity, Ames/micronucleus/aberration tests. The series is described as follows: CCRIS mutagenicity studies.

Regarding `O=CC=C(Cl)Cl`, the mutagenic call is “active; positive” (Test System: AMES SALMONELLA TYPHIMURIUM, Strain/Indicator: TA98, Metabolic Activation: NONE, Method: STANDARD PLATE); “inactive; negative” (Test System: AMES SALMONELLA TYPHIMURIUM, Strain/Indicator: TA98, Metabolic Activation: RAT, LIVER, S-9, AROCLOR 1254, Method: STANDARD PLATE); “active; positive” (Test System: AMES SALMONELLA TYPHIMURIUM, Strain/Indicator: TA100, Metabolic Activation: NONE, Method: STANDARD PLATE); “active; positive” (Test System: AMES SALMONELLA TYPHIMURIUM, Strain/Indicator: TA100, Metabolic Activation: RAT, LIVER, S-9, AROCLOR 1254, Method: STANDARD PLATE); “active; positive” (Test System: AMES SALMONELLA TYPHIMURIUM, Strain/Indicator: TA1535, Metabolic Activation: NONE, Method: STANDARD PLATE); “active; positive” (Test System: AMES SALMONELLA TYPHIMURIUM, Strain/Indicator: TA1535, Metabolic Activation: RAT, LIVER, S-9, AROCLOR 1254, Method: STANDARD PLATE). The mutagenic call reads like this: (Test System: AMES SALMONELLA TYPHIMURIUM, Strain/Indicator: TA1537, Metabolic Activation: NONE, Method: STANDARD PLATE) “inactive; negative”; (Test System: AMES SALMONELLA TYPHIMURIUM, Strain/Indicator: TA1537, Metabolic Activation: RAT, LIVER, S-9, AROCLOR 1254, Method: STANDARD PLATE) “inactive; negative”.
Turning to `O=[N+]([O-])c1cc([As](=O)(O)O)ccc1O`, the mutagenic call reads like this: (End Point: IN VITRO CHROMOSOMAL ABERRATIONS, Test System: CHO CELLS, Metabolic Activation: RAT, LIVER, S-9, AROCLOR 1254) “inactive; negative; testing limited by solubility of the chemical”; (End Point: IN VITRO CHROMOSOMAL ABERRATIONS, Test System: CHO CELLS, Metabolic Activation: RAT, LIVER, S-9, PHENOBARBITAL AND BETA-NAPHTHOFLAVONE) “inactive; negative”; (Test System: AMES SALMONELLA TYPHIMURIUM, Strain/Indicator: TA98, Metabolic Activation: HAMSTER, LIVER, S-9, AROCLOR 1254 (10%), Method: PREINCUBATION) “inactive; negative”; (Test System: AMES SALMONELLA TYPHIMURIUM, Strain/Indicator: TA98, Metabolic Activation: HAMSTER, LIVER, S-9, AROCLOR 1254, Method: PREINCUBATION) “inactive; negative”; (Test System: AMES SALMONELLA TYPHIMURIUM, Strain/Indicator: TA98, Metabolic Activation: NONE, Method: PREINCUBATION) “inactive; negative”; (Test System: AMES SALMONELLA TYPHIMURIUM, Strain/Indicator: TA98, Metabolic Activation: RAT, LIVER, S-9, AROCLOR 1254 (10%), Method: PREINCUBATION) “inactive; negative”. Besides, the mutagenic call (Test System: AMES SALMONELLA TYPHIMURIUM, Strain/Indicator: TA98, Metabolic Activation: RAT, LIVER, S-9, AROCLOR 1254, Method: PREINCUBATION) was “inactive; negative”; the mutagenic call (Test System: AMES SALMONELLA TYPHIMURIUM, Strain/Indicator: TA100, Metabolic Activation: HAMSTER, LIVER, S-9, AROCLOR 1254 (10%), Method: PREINCUBATION) was “inactive; negative”; the mutagenic call (Test System: AMES SALMONELLA TYPHIMURIUM, Strain/Indicator: TA100, Metabolic Activation: HAMSTER, LIVER, S-9, AROCLOR 1254, Method: PREINCUBATION) was “inactive; negative”; the mutagenic call (Test System: AMES SALMONELLA TYPHIMURIUM, Strain/Indicator: TA100, Metabolic Activation: NONE, Method: PREINCUBATION) was “inactive; negative”; the mutagenic call (Test System: AMES SALMONELLA TYPHIMURIUM, Strain/Indicator: TA100, Metabolic Activation: RAT, LIVER, S-9, AROCLOR 1254 (10%), Method: PREINCUBATION) is “inactive; negative”; the mutagenic call (Test System: AMES SALMONELLA TYPHIMURIUM, Strain/Indicator: TA100, Metabolic Activation: RAT, LIVER, S-9, AROCLOR 1254, Method: PREINCUBATION) is “inactive; negative”. Moreover, the mutagenic call is “inactive; negative” (Test System: AMES SALMONELLA TYPHIMURIUM, Strain/Indicator: TA1535, Metabolic Activation: HAMSTER, LIVER, S-9, AROCLOR 1254 (10%), Method: PREINCUBATION); “inactive; negative” (Test System: AMES SALMONELLA TYPHIMURIUM, Strain/Indicator: TA1535, Metabolic Activation: HAMSTER, LIVER, S-9, AROCLOR 1254, Method: PREINCUBATION); “inactive; negative” (Test System: AMES SALMONELLA TYPHIMURIUM, Strain/Indicator: TA1535, Metabolic Activation: NONE, Method: PREINCUBATION); “inactive; negative” (Test System: AMES SALMONELLA TYPHIMURIUM, Strain/Indicator: TA1535, Metabolic Activation: RAT, LIVER, S-9, AROCLOR 1254 (10%), Method: PREINCUBATION); “inactive; negative” (Test System: AMES SALMONELLA TYPHIMURIUM, Strain/Indicator: TA1535, Metabolic Activation: RAT, LIVER, S-9, AROCLOR 1254, Method: PREINCUBATION); “inactive; negative” (Test System: AMES SALMONELLA TYPHIMURIUM, Strain/Indicator: TA1537, Metabolic Activation: HAMSTER, LIVER, S-9, AROCLOR 1254 (10%), Method: PREINCUBATION). Further, the mutagenic call by setting is: (Test System: AMES SALMONELLA TYPHIMURIUM, Strain/Indicator: TA1537, Metabolic Activation: HAMSTER, LIVER, S-9, AROCLOR 1254, Method: PREINCUBATION) “inactive; negative”; (Test System: AMES SALMONELLA TYPHIMURIUM, Strain/Indicator: TA1537, Metabolic Activation: NONE, Method: PREINCUBATION) “inactive; negative”; (Test System: AMES SALMONELLA TYPHIMURIUM, Strain/Indicator: TA1537, Metabolic Activation: RAT, LIVER, S-9, AROCLOR 1254 (10%), Method: PREINCUBATION) “inactive; negative”; (Test System: AMES SALMONELLA TYPHIMURIUM, Strain/Indicator: TA1537, Metabolic Activation: RAT, LIVER, S-9, AROCLOR 1254, Method: PREINCUBATION) “inactive; negative”; (Test System: MOUSE LYMPHOMA, Strain/Indicator: L5178Y (TK+/TK-), Metabolic Activation: NONE, Method: SUSPENSION/PLATE) “active; positive”.
Consider `Cc1ccc2c(ccc3c4ccccc4ccc23)c1`, for which the mutagenic call by setting is: (Test System: AMES SALMONELLA TYPHIMURIUM, Strain/Indicator: TA98, Metabolic Activation: RAT, LIVER, CYTOSOL, AROCLOR 1254, Method: STANDARD PLATE) “inactive; negative”; (Test System: AMES SALMONELLA TYPHIMURIUM, Strain/Indicator: TA98, Metabolic Activation: RAT, LIVER, MICROSOMES, AROCLOR 1254, Method: STANDARD PLATE) “inactive; negative”; (Test System: AMES SALMONELLA TYPHIMURIUM, Strain/Indicator: TA100, Metabolic Activation: RAT, LIVER, MICROSOMES, 2-METHYLCHRYSENE, Method: STANDARD PLATE) “inactive; negative”; (Test System: AMES SALMONELLA TYPHIMURIUM, Strain/Indicator: TA100, Metabolic Activation: RAT, LIVER, MICROSOMES, AROCLOR 1254, Method: STANDARD PLATE) “active; positive”; (Test System: AMES SALMONELLA TYPHIMURIUM, Strain/Indicator: TA100, Metabolic Activation: RAT, LIVER, MICROSOMES, Method: STANDARD PLATE) “inactive; negative”.

The values are drawn from PubChem BioAssay AID1259407 (Chemical Carcinogenesis Research Information System (CCRIS), 2018).
